{"source": "patent US8859543B2", "about": "“Imidazo[1,2-a]pyrazine derivatives and their use for the prevention or treatment of neurological, psychiatric and metabolic disorders and diseases” (Janssen Pharmaceutica NV, priority 2010, dated 2014)", "key": {"PDE3A": {"target": "PDE3A (Homo sapiens, UniProt Q14432)", "sequence (Q14432 whole entry)": "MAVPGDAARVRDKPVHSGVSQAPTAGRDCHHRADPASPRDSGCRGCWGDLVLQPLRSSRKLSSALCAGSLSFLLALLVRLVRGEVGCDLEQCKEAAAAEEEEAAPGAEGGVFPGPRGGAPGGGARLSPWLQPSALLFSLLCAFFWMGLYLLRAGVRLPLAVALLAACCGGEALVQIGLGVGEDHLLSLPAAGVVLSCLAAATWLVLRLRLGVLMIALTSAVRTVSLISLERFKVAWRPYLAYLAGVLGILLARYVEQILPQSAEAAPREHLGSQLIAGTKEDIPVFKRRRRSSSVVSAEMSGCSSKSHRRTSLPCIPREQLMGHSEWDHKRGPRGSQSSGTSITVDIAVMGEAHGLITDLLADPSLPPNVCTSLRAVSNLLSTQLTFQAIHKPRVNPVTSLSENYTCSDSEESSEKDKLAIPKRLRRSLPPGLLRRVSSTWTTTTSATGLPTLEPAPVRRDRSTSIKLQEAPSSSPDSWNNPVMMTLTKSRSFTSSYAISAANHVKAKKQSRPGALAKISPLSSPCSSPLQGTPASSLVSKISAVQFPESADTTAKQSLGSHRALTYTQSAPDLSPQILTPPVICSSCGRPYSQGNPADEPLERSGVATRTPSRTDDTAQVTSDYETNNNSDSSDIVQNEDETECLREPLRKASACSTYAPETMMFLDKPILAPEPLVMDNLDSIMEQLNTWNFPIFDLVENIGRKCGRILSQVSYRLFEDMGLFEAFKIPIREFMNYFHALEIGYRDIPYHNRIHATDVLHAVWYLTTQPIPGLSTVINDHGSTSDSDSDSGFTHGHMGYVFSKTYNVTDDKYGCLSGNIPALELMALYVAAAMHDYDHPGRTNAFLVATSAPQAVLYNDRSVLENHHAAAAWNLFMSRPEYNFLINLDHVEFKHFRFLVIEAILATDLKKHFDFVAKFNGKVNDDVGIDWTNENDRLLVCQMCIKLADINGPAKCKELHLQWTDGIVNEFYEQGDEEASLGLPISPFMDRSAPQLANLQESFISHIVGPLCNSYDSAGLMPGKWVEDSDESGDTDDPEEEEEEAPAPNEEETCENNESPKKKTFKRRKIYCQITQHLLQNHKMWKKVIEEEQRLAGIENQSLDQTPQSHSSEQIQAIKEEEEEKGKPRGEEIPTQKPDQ", "assay": "In vitro PDE selectivity assay, PDE3A", "format": "biochemical", "conditions": "Table 4a in vitro selectivity; read-out: IC50 PDE type 3A", "procedure": "(§1) Rat recombinant PDE10A (rPDE10A2) was expressed in Sf9 cells using a recombinant rPDE10A baculovirus construct. Cells were harvested after 48 h of infection and the rPDE10A protein was purified by metal chelate chromatography on Ni-sepharose 6FF. […] The reaction was incubated for 60 min. at RT. […] After sedimentation of the beads during 30 min. the radioactivity was measured in a Perkin Elmer Topcount scintillation counter and results were expressed as cpm. For blank values the enzyme was omitted from the reaction and replaced by incubation buffer. […] The same assay principle is applied for the measurement of the affinity of the compound for other members of the PDE family with appropriate modifications in incubation buffer, substrate concentration, incubation time and stop solution."}, "PDE7A": {"target": "PDE7A (Homo sapiens, UniProt Q13946)", "sequence (Q13946 whole entry, species assumed)": "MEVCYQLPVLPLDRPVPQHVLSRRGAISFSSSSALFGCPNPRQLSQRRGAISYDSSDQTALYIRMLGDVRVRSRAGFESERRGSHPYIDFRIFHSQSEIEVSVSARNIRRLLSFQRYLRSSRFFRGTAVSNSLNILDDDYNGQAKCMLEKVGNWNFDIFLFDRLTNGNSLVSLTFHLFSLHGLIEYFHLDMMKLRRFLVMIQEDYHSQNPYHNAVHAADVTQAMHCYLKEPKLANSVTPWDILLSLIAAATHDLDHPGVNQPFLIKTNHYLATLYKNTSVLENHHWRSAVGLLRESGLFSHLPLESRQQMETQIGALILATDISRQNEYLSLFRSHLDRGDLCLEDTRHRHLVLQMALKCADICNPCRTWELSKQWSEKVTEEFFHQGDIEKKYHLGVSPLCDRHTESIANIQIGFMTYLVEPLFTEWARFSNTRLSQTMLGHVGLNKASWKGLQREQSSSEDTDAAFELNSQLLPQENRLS", "assay": "In vitro PDE selectivity assay, PDE7A", "format": "biochemical", "conditions": "Table 4a in vitro selectivity; read-out: IC50 PDE type 7A", "procedure": "as §1"}, "PDE8A1": {"target": "PDE8A1 (Homo sapiens, UniProt O60658)", "sequence (O60658 whole entry, species assumed)": "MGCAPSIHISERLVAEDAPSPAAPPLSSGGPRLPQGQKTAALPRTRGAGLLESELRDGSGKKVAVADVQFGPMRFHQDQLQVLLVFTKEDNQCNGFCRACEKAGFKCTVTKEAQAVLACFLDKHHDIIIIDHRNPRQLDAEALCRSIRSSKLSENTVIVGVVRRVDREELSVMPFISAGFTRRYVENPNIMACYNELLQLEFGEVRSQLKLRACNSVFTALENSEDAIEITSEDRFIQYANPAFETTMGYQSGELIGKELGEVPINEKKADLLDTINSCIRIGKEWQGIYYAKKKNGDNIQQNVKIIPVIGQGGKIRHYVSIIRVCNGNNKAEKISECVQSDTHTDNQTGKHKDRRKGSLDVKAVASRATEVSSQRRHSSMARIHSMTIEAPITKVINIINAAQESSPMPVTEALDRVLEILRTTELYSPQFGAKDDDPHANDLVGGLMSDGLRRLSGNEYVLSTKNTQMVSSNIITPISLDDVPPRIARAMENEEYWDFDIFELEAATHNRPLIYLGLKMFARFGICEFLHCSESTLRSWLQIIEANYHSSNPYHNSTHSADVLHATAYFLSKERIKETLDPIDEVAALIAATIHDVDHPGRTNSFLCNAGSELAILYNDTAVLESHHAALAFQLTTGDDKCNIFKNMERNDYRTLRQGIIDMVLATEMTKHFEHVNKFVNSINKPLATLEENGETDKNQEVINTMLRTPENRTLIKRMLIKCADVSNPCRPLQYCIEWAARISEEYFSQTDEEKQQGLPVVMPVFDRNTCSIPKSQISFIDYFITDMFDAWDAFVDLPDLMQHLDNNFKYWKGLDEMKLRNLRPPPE", "assay": "In vitro PDE selectivity assay, PDE8A", "format": "biochemical", "conditions": "Table 4a in vitro selectivity; read-out: IC50 PDE type 8A", "procedure": "as §1"}, "PDE9A": {"target": "PDE9A (Homo sapiens, UniProt O76083)", "sequence (O76083 whole entry)": "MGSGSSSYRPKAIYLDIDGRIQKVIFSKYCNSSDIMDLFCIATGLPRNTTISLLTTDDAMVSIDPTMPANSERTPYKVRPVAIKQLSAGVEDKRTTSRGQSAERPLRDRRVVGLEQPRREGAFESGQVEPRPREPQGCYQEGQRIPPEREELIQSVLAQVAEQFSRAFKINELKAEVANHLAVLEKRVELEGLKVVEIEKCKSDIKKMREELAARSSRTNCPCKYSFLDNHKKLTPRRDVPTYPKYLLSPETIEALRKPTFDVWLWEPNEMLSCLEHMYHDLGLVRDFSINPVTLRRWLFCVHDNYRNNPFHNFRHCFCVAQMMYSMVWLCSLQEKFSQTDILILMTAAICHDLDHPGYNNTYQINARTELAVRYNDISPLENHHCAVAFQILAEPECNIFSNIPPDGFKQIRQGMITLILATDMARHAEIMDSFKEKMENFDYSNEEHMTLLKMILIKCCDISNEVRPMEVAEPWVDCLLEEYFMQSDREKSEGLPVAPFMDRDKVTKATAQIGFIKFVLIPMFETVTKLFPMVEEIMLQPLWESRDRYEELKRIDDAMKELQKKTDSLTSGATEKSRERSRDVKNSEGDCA", "assay": "In vitro PDE selectivity assay, PDE9A", "format": "biochemical", "conditions": "Table 4a in vitro selectivity; read-out: IC50 PDE type 9A", "procedure": "as §1"}, "[1]": {"tested_on": "conditioned avoidance response", "assay": "Conditioned avoidance response (CAR) test", "format": "in vivo", "conditions": "Rattus norvegicus", "text": "Conditioned Avoidance Response (CAR) Test\nThe apparatus consisted of an inner box surrounded by an outer box. The inner box was composed of four walls of transparent, synthetic material (length×width×height: 30×30×30 cm), an open top, and a grid floor made of 15 pairs of iron bars (2 mm diameter; 6 mm inter-bar distance). Odd and even bars were connected with a source of alternative current (1.0 mA; Coulbourn Instruments Solid State Shocker/Distributor), which could be interrupted by a switch. The outer box was composed of the same material (length×width×height: 40×40×36 cm), also with an open top, with a distance of 5 cm between the inner and outer box on all sides. To decrease the amount of environmental stimuli, three walls of the outer box were made non-transparent. The front wall was left transparent to allow the necessary inspection of the animal during the test. The upper edge of the outer and inner box served as a target for the rats on which to jump with fore- and hind-paws, respectively.\nFrom their arrival in the laboratory on the experimental day, male Wiga Wistar rats (230±30 g) were housed in individual cages provided with bedding material.\nThe rats were tested 3 times, i.e. at 60, 90 and 120 min after the injection of test compound or solvent. Latency to avoidance was recorded. The median avoidance response obtained over the three experimental sessions for each rat were used for further calculations."}, "[2]": {"tested_on": "SCH-23390-induced hypolocomotion", "assay": "SCH-23390-induced hypolocomotion in mice", "format": "in vivo", "conditions": "Mus musculus; male NMRI mice, pretreated 0.5 h earlier; criterion total distance >2500 counts; read-out: ED50 reversal of SCH-23390-induced hypolocomotion", "procedure": "SCH-23390-Induced Hypolocomotion in Mice\nSCM-23390 (0.08 mg/kg, i.v.)-induced hypolocomotion was evaluated over a 30-min period starting immediately after the SCH-23390 challenge in male NMRI mice pretreated 0.5 h earlier with test compound or solvent. Averaged activity in solvent-treated control mice was 1540±559 counts (mean±SD; n=103). Criterion for drug-induced reversal of the SCH-23390-induced hypolocomotion: total distance: >2500 counts (2.9% false positives in controls)."}}, "data": [{"smiles": "Cc1nc2c(N3CCOCC3)nccn2c1-c1ccc(C2CCOCC2)nc1", "note": "[compound 25, 2-Methyl-8-morpholin-4-yl-3-[6-(tetrahydro-pyran-4-yl)-pyridin-3-yl]-imidazo[1,2-a]pyrazine]", "values": [{"measurement": "IC50", "setting": "PDE3A", "result": 112, "unit": "µM"}, {"measurement": "IC50", "setting": "PDE7A", "result": "> 100", "unit": "µM"}, {"measurement": "IC50", "setting": "PDE8A1", "result": "> 100", "unit": "µM"}, {"measurement": "IC50", "setting": "PDE9A", "result": "> 100", "unit": "µM"}, {"measurement": "ED50", "setting": "[1]", "result": 4.1, "unit": "mg/kg"}, {"measurement": "ED50", "setting": "[2]", "result": 7.1, "unit": "mg/kg"}]}]}
